Laboratory results from patent US12552815B2, “Boronic acid derivatives and synthesis, polymorphic forms, and therapeutic uses thereof” (QPEX BIOPHARMA, INC., priority 2020, dated 2026).

Assay: Dynamic vapor sorption (DVS) analysis
Type: physicochemical
Conditions: for hygroscopicity / water uptake by dynamic vapor sorption (DVS): 25° C., 10% RH steps from 5 to 95% RH and from 95 to 5% RH
Protocol: DVS analysis was carried out using a TA Instruments Q5000 Dynamic Vapor Sorption analyzer. The instrument was calibrated with standard weights and a sodium bromide standard for humidity. Approximately 20 mg of sample was loaded into a metal-coated quartz pan for analysis. The sample was analyzed at 25° C. with a maximum equilibration time of one hour in 10% relative humidity (RH) steps from 5 to 95% RH (adsorption cycle) and from 95 to 5% RH (desorption cycle). The movement from one step to the next occurred either after satisfying the equilibrium criterion of 0.01% weight change or, if the equilibrium criterion was not met, after one hour. The percent weight change values were calculated using Microsoft Excel®. The temperature for the DVS analysis can impact the outcome of the results.
Differential Scanning Calorimetry (5° C./min), Thermogravimetric analysis (5° C./min), and Dynamic Vapor Sorption (stepwise RH decrease from 45% to 0% at 50° C.) data for highly crystalline Form A of Compound I′ prepared analogously to the crystallization method above is shown in FIGS. 27-29, respectively.

CCOC(=O)c1c(F)ccc2c1O[B-]1(C=C2)O[C@@H](c2ccccc2)[C@H](C)[NH+]1C (stereo partly shown) [Compound A-3, pseudoephedrine complex of ethyl 7-fluoro-2-hydroxy-2H-benzo[e][1,2]oxaborinine-8-carboxylate]
hygroscopicity / water uptake by dynamic vapor sorption (DVS): not hygroscopic

CCOC(=O)c1c(F)ccc2c1O[B-]1(O[C@@H](c3ccccc3)[C@H](C)[NH+]1C)[C@@H]1C[C@H]21 (stereo partly shown) [Compound A-4]
hygroscopicity / water uptake by dynamic vapor sorption (DVS): not hygroscopic

O=C([O-])c1c(F)ccc2c1O[B-](O)(O)[C@@H]1C[C@H]21.[Na+].[Na+] [Form A of Compound I′]
hygroscopicity / water uptake by dynamic vapor sorption (DVS): hygroscopic
gain/loss of water by dynamic vapor sorption (DVS), highly crystalline sample (relative humidity range of 5% to 75%, FIG. 29, stepwise RH decrease from 45% to 0% at 50° C.): resists gain/loss of water
